{"source": "patent US20210060166A1", "about": "“Method for the preparation of a 1,7-bis (4-hydroxy-3-methoxyphenyl)-1,6-heptadiene-3,5-dione system in polysorbates for the formation of micelles in an aqueous medium aimed at the properties of the bioavailability of curcuminoids” (priority 2019, published 2021)", "assay_type_in_all_cases": "physicochemical", "key": {"[1]": {"assay": "integration of curcumin into aqueous phase with polysorbates (UV/VIS 424 nm)", "conditions": "25° C.", "protocol": "Three concentrations of polysorbate of different value of HLB were evaluated in a 1:1 ratio for each mixture; With this combination of surfactants, 3 aqueous systems were prepared at concentrations of 0.0052%, 0.04% and 0.113% (% weight/weight). The first corresponds to a concentration below the individual Critical Micellar Concentration (CMC) of each surfactant 2.8529 mg/L, the second corresponds to a concentration slightly above the CMC 6.8439 mg/L and the third corresponds to a concentration well above the CMC, respectively 21.222 mg/L (FIG. 1). […] After 30 minutes of stirring at 500 RPM at 25° C., the suspensions were allowed to stand for 30 minutes and a sample from the supernatant was taken for UV/VIS spectrophotometric evaluation at 424 nm, using the 3 mentioned concentrations as blank.\nThe ability to form a micellar system of 1,7-bis (4-hydroxy-3-methoxyphenyl)-1,6-heptadien-3,5-dione at different percentages of polysorbates was evaluated."}, "[2]": {"assay": "suspension capacity of polysorbates for curcumin by gravimetry", "conditions": "Tween 80-Tween 20 (1:1)", "protocol": "The suspension capacity of the polysorbates for 1,7-bis (4-hydroxy-3-methoxyphenyl)-1,6-heptadien-3,5-dione was evaluated by gravimetry according to P[…] THE UNITED MEXICAN STATES (FEUM), volume 1, eleventh edition.\nStating that at ratios of <100 of Tween 20 or 80, the capacity is not sufficient to suspend the required analyte dose. However, after 160 mg/mL (1:1) the presence of precipitate was found. In FIG. 2, different concentrations of polysorbate (Tween 80-Tween 20 (1:1) are specified in which, when mixed with analyte results in absence or presence of analyte precipitate (FIG. 3)."}, "[3]": {"assay": "dialysis release of curcumin through cellulose membrane", "from_the_text": "Spectrum™ Spectra/Por™ 4 RC Dialysis Membrane Tubing 12,000 to 14,000 Dalton MWCO, cellulose, was used. The release conditions were pH 6.8, Polysorbate 1, 8%, Polysorbate 2, 4%. The pH 6.8 was used as Kiyohiko Sugano, Hirokazu Hamada, Minoru Machida, Hidetoshi Ushio, Kimitoshi Saitoh, Katsuhide Terada. Optimized conditions of bio-mimetic artificial membrane permeation assay. International Journal of Pharmaceutics Volume 228, Issues 1-2, 9 Oct. 2001, Pages 181-188 to simulate the conditions of the intestine, where the absorption of the compound is carried out. Concentrations of 8 and 4 percent of the polysorbates were used to ensure that the solution is above the CMC and the ability to form micelles is not lost, since the analytical method requires that an amount of release medium gets removed and replenish with simple medium (FEUM, volume 1, eleventh edition.)."}}}
{"smiles": "COc1cc(C=CC(=O)CC(=O)C=Cc2ccc(O)c(OC)c2)ccc1O", "note": "[curcumin, 1,7-bis (4-hydroxy-3-methoxyphenyl)-1,6-heptadien-3,5-dione]", "values": [{"measurement": "curcumin concentration in solution", "setting": "[1]; polysorbates 0.0052% w/w (below CMC)", "value": 2.8529, "unit": "mg/L"}, {"measurement": "curcumin concentration in solution", "setting": "[1]; polysorbates 0.04% w/w (slightly above CMC)", "value": 6.8439, "unit": "mg/L"}, {"measurement": "curcumin concentration in solution", "setting": "[1]; polysorbates 0.113% w/w (well above CMC)", "value": 21.222, "unit": "mg/L"}, {"measurement": "concentration after which presence of precipitate was found", "setting": "[2]", "value": "> 160000", "unit": "µg/mL"}, {"measurement": "concentration released over time", "setting": "[3]; absence of polysorbates in the medium", "value": "does not show any increase in concentration over time"}, {"measurement": "concentration released over time", "setting": "[3]; pH 6.8, Polysorbate 1 8%, Polysorbate 2 4%, 0.25 h to 20 h", "value": "increases with time"}]}
